Measurements published in patent publication US20100016275A1, “NOVEL COMPOUND 395” (priority 2008, published 2010).
Several values for one entry are separate records, joined by “and”; a condition that tells them apart may be missing. Equal entries are not always repeated.

Biological target: T1, human CXCR2 receptor (Homo sapiens, UniProt P25025)
T1 construct: expressed in transfected cells; host or cells: HEK293, stably transfected geneticin-resistant clones, vector RcCMV; membranes purified by sucrose gradient
T1 sequence (P25025 1-360): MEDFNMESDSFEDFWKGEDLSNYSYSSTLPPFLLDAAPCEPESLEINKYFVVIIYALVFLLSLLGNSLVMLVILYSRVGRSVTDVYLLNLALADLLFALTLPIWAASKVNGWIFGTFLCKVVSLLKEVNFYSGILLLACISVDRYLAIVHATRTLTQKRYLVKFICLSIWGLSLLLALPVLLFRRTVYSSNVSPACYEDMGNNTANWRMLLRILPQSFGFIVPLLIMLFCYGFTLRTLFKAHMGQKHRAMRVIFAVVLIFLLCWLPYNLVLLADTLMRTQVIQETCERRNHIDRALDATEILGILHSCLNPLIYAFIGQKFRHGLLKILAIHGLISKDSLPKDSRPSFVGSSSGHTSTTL
Assay: Potency (pIC50) ligand binding assay, inhibition of [125I]IL-8 binding
Conditions: for IC50: inhibition of specific [125I]IL-8 (0.06 nM) binding, membranes of HEK293 cells transfected with human recombinant CXCR2
Experimental: Potency (pIC50)—Ligand Binding Assay
The potency of antagonists at the human CXCR2 receptor was determined in vitro by quantifying their ability to inhibit specific binding of the CXCR2 radioligand, [^125I]interleukin-8 (IL-8), from membranes of HEK293 cells transfected with the human recombinant CXCR2 receptor.
Commercially sourced materials were obtained as follows: U-bottomed 96-well plates (3799) and 225 cm^2 vented cap culture flasks (3001) from Costar, Corning, Kent, UK. Multiscreen filter plates (0.45 μm; MAHV N45 50), vacuum manifold and pump (XF54 230 50) from Millipore, Watford, UK. N-[2-hydroxyethyl]piperazine-N′-[2ethanesulphonic acid] (HEPES; H-3375), ethylene diamine-tetraacetic acid (EDTA; E1644), magnesium chloride (M-9272), gelatin (G9382), dithiothreitol (DTT; D06052), sodium chloride (S3160/63), sodium hydroxide (B6506), bacitracin (B0125), inactivated foetal calf serum (FCS; CR0848) and DMSO Fluka Chemika (41648) from Sigma, Poole, UK. MicroScint-O (6013611) Packard BioScience, Pangboume, UK. Complete protease inhibitor cocktail tablets (1836145) from Boehringer s Mannheim, GmbH, Germany. Human recombinant [^125I]IL-8 74 TBq/mmol, 0.712 MBq/ml (IM249) from Amersham, Horsham UK. All other tissue culture reagents were purchased from Invitrogen, Paisley, Scotland, UK. All other chemical reagents were analytical grade from Fisher Scientific, Loughborough, UK
HEPES-buffered salt solution pH 7.4 containing HEPES (10 mM), potassium chloride (2.7 mM), sodium chloride (137 mM), potassium hydrogen phosphate (0.4 mM), calcium chloride (1.8 mM), magnesium chloride (1 mM), gelatin (0.1% (w/v)) and bacitracin (100 μg/ml).
HEPES-buffered Tyrode's solution pH 7.4 containing HEPES (10 mM), potassium chloride (2.7 mM), sodium chloride (137 mM), potassium hydrogen phosphate (0.4 mM), glucose (11 mM).
Hypotonic buffer: 3:1 mix of water: HEPES-buffered Tyrode's solution.
HEK293 cells were transfected with human CXCR2 (EMBL L19593) cDNA, previously cloned into the eukaryotic expression vector RcCMV. Cloned cell-lines were generated from stably-transfected geneticin-resistant populations. Cells were routinely grown to approximately 80% confluence in DMEM medium containing 10% (v/v) foetal calf serum and glutamine (2 mM) in a humidified incubator at 37° C., 5% CO2. Cells were harvested from flasks using Accutase™ at 37° C. for 3 to 5 minutes and resuspended on ice in hypotonic buffer at a density of 2×10^7 cells/mL. Membranes were prepared on ice by homogenisaton using a polytron tissue homogenizer set at 22000 rpm. The membrane fraction was purified by sucrose gradient centrifugation where homogenised cells were layered onto 41% (w/v) sucrose solution then centrifuged at 140000 g for 1 hour at 4° C. The membrane fraction was harvested at the interface, diluted 4-fold with HEPES-buffered Tyrode's solution and centrifuged at 100000 g for 20 minutes at 4° C. The membrane pellet was re-suspended at 1×10^8 cell equivalents/mL in HEPES-buffered Tyrode's solution and subsequently stored in aliquots at −80° C. All buffers used for membrane preparation and storage were made in the presence of 1 mM DTT and Complete Protease Inhibitor™ cocktail tablets, made up to manufacturers instructions.
Assays were performed in HEPES-buffered salt solution in 96-well plates. [^125I]IL-8 was used at a final concentration of 0.06 nM, pre-diluted from a 9.6 nM stock. The final DMSO concentration in the assay was 1% (v/v). Test compounds were prepared by serial dilution in DMSO followed by a ten-fold dilution into HEPES-buffered salt solution to give a working solution containing compound and 10% DMSO. The control for total binding (B0) of [^125I]IL-8 was determined in the absence of compound. The control for non-specific binding (NSB) was determined by measuring [^125I]IL-8 binding in the presence of (1R)-5-[[(3 -chloro-2-fluorophenyl)methyl]thio]-7-[[2-hydroxy-1-methylethyl]amino]thiazolo[4,5-d]pyrimidin-2(3H)-one dihydrate, sodium salt at 1 μM final concentration. […]

IC50 | fold less potent than the compound of Formula (1) (potency ratio from pIC50) [fold] | fold less potent than the compounds of Examples 39-42 (potency ratio from pIC50) | SMILES
7.94 nM | – | – | Cc1ccc(CSc2nc(N[C@H](C)CO)cc(NS(=O)(=O)N3CCC3)n2)c(F)c1C [Example 42]
3.16 nM | – | – | Cc1ccc(CSc2nc(N[C@H](C)CO)cc(NS(=O)(=O)N3CCC3)n2)c(F)c1C [Example 41]
2.51 nM | – | – | Cc1cccc(CSc2nc(N[C@H](C)CO)cc(NS(=O)(=O)N3CCC3)n2)c1F [Example 40]
6.31 nM and < 10 nM | – | – | C[C@@H](Nc1cc(NS(=O)(=O)N2CCC2)nc(SCc2cccc(F)c2F)n1)[C@@H](O)CO [Example 1, N-(2-[(2,3-difluorobenzyl)thio]-6-{[(1R,2R)-2,3-dihydroxy-1-methylpropyl]amino}pyrimidin-4-yl)azetidine-1-sulfonamide]
2510 nM | 398 | 316-1000 fold | CS(=O)(=O)Nc1cc(NC(CO)CO)nc(SCc2ccccc2)n1 [Example 21]
3.98 nM | – | – | Cc1cccc(CSc2nc(N[C@H](C)CO)cc(NS(C)(=O)=O)n2)c1F [Example 39]
